Like-named read-outs stand apart in the source and are kept apart here.
Legend:
[1] = system: human venous whole blood (IFN-γ); experiment: Human whole blood IFN-γ assay; type: cell-based; settings: whole blood, normalized to 3 μM reference compound as 100% activation, read-out: IFN-γ Whole Blood Normalized EC50
Description: Human venous whole blood (22.5 μL per well), obtained from healthy donors, was pre-treated with compounds for one hour at 37° C. in a humidified 95% air/5% CO2 incubator. The blood was stimulated with 2.5 μL anti-human CD3 and anti-CD28 mAb at a final concentration of 1 μg/mL each for 24 hours at 37° C. IFN-γ in the supernatants was measured using AlphLISA kit (Cat #AL217).

whole blood (pERK) = experiment: pERK Whole Blood assay (Table A; no whole-blood pERK method described); type: cell-based; settings: normalized
human DGKζ = human DGKζ (Homo sapiens (Human), UniProt Q13574); experiment: DGKζ LIPGLO assay (extruded liposome substrate, ADP-Glo luminescence); type: biochemical; settings: liposome assay; read-out: DGK zeta LIPGLO IC50
human DGKα = human DGKα (Homo sapiens (Human), UniProt P23743); experiment: DGKα LIPGLO assay (extruded liposome substrate, ADP-Glo luminescence); type: biochemical; settings: liposome assay; read-out: DGK alpha LIPGLO IC50
human DGKα, sequence (P23743 whole entry, looked up): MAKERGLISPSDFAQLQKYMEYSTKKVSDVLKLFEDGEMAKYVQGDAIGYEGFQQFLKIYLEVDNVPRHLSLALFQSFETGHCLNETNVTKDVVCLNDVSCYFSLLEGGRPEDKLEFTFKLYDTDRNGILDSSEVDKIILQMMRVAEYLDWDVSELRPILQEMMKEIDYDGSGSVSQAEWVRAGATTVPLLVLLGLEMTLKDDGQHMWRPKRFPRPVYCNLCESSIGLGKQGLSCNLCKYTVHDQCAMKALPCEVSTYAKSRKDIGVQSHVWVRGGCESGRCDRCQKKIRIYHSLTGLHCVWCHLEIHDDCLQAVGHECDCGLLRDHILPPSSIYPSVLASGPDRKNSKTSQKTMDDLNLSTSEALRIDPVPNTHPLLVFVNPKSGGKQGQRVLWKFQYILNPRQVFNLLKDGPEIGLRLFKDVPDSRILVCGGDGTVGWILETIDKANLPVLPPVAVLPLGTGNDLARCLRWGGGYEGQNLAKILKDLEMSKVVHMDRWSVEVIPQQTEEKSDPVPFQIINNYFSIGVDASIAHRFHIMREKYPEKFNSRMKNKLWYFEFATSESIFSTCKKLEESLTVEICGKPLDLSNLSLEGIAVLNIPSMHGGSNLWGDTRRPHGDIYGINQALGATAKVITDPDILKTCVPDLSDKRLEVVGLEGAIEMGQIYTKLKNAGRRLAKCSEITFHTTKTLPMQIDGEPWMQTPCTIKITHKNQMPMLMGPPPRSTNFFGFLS

human DGKζ, sequence (Q13574 other isoform, or with tags, fused parts or gaps): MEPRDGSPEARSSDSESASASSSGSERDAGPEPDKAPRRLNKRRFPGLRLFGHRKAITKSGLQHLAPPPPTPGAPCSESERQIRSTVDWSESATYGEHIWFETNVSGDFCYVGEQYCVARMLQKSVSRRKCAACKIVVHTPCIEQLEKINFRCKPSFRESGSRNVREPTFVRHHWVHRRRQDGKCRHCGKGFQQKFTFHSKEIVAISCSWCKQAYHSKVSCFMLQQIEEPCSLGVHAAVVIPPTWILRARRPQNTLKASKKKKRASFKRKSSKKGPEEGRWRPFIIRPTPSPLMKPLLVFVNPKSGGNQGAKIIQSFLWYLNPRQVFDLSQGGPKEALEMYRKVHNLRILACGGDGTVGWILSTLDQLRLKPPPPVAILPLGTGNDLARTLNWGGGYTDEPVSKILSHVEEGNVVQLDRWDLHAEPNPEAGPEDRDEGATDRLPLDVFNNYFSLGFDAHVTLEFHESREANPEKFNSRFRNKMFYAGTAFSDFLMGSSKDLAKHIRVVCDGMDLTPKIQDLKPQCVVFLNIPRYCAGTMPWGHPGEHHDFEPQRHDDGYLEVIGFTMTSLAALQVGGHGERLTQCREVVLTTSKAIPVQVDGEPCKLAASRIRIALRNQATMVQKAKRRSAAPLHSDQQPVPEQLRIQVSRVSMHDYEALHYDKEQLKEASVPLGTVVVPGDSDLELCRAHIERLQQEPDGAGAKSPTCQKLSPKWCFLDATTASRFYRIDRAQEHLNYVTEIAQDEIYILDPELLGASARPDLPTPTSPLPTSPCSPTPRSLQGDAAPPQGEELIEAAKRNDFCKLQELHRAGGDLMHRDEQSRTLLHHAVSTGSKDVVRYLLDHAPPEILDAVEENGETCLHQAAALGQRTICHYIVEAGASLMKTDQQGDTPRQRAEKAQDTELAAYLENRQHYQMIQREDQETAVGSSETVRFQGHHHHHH

IC50 (human DGKζ) | IC50 (human DGKα) | Structure (SMILES) | EC50 [1] | IC50 (whole blood (pERK)) | EC50 ([1]; Homo sapiens)
2120 nM | 1330 nM | CC(c1ccc(OC(F)(F)F)cc1F)N1C[C@H](C)N(c2nc(=O)n(C)c3ccc(C#N)nc23)C[C@H]1C (single isomer, unassigned) [Example 143] | – | 1140 nM | –
460 nM | 38 nM | C[C@@H]1CN(c2nc(=O)n(C)c3ccc(C#N)nc23)[C@@H](C)CN1C(c1ccc(F)cc1)c1ccon1 (single isomer, unassigned) [Example 163] | 250 nM | 490 nM | –
200 nM | 350 nM | CC(c1ccc(C(F)(F)F)cc1F)N1C[C@H](C)N(c2nc(=O)n(C)c3ccc(C#N)nc23)C[C@H]1C (single isomer, unassigned) [Example 150] | – | 140 nM | 480 nM
140 nM | 29 nM | CC[C@@H]1CN(c2nc(=O)n(C)c3ccc(C#N)nc23)[C@@H](C)CN1C(c1ccc(F)cc1)c1ccon1 (single isomer, unassigned) [Example 73] | 22 nM | 80 nM | –
2470 nM | 160 nM | CC[C@H]1CN(C(c2ccc(F)cc2)c2ccc(C(F)(F)F)cn2)[C@H](C)CN1c1nc(=O)n(C)c2ccc(C#N)nc12 (stereo partly drawn) [Example 115, 4-((2S,5R)-2-ethyl-4-((4-fluorophenyl)(5-(trifluoromethyl)pyridin-2-yl)methyl)-5-methylpiperazin-1-yl)-1-methyl-2-oxo-1,2-dihydropyrido[3,2-d]pyrimidine-6-carbonitrile] | 230 nM | 520 nM | –
11 nM | 37 nM | CC[C@@H]1CN(c2nc(=O)n(C)c3ccc(C#N)nc23)[C@@H](C)CN1C(C)c1ccc(OC)cc1 (single isomer, unassigned) [Example 56] | 39 nM | 200 nM | –
130 nM | 10 nM | CC(c1ccc(OC(F)(F)F)cc1)N1C[C@H](C)N(c2nc(=O)n(C)c3ccc(C#N)nc23)C[C@H]1C (single isomer, unassigned) [Example 131] | 360 nM | 170 nM | –
120 nM | 30 nM | CC[C@H]1CN(C(c2ccc(F)cc2)c2ccon2)[C@H](CC)CN1c1nc(=O)n(C)c2ccc(C#N)nc12 (single isomer, unassigned) [Example 35] | 120 nM | 150 nM | –
190 nM | 34 nM | C[C@@H]1CN(c2nc(=O)n(C)c3ccc(C#N)nc23)[C@@H](C)CN1C(c1ccc(F)cc1)c1nc(C(C)(C)C)no1 (single isomer, unassigned) [Example 109] | 110 nM | 48 nM | –
44 nM | 47 nM | CC(c1ccc(Cl)cc1F)N1C[C@H](C)N(c2nc(=O)n(C)c3ccc(C#N)nc23)C[C@H]1C (single isomer, unassigned) [Example 146] | – | 250 nM | 710 nM
66 nM | 140 nM | CC[C@@H]1CN(c2nc(=O)n(C)c3ccc(C#N)nc23)[C@@H](C)CN1C(c1ccc(F)cc1)c1cc(C2CC2)on1 (single isomer, unassigned) [Example 101] | – | 250 nM | 100 nM
110 nM | 180 nM | COC[C@@H]1CN(c2nc(=O)n(C)c3ccc(C#N)nc23)[C@@H](C)CN1C(C)c1ccc(OC(F)(F)F)cc1 (single isomer, unassigned) [Example 176] | 190 nM | 210 nM | –
48 nM | 16 nM | CC[C@@H]1CN(c2nc(=O)n(C)c3ccc(C#N)nc23)[C@@H](C)CN1C(C)c1ccc(OC(F)(F)F)cc1 (single isomer, unassigned) [Example 48] | 18 nM | 25 nM | –

The remaining lines, values behind:

Structure (SMILES) | IC50 (human DGKζ) | IC50 (human DGKα) | EC50 [1] | IC50 (whole blood (pERK)) | EC50 ([1]; Homo sapiens)
COC[C@@H]1CN(c2nc(=O)n(C)c3ccc(C#N)nc23)[C@@H](C)CN1C(C)c1ccc(OC(F)(F)F)cc1 (single isomer, unassigned) [Example 177] | 770 nM | 610 nM | 1710 nM | 520 nM | –
CC(c1ccc(F)cc1F)N1C[C@H](C)N(c2nc(=O)n(C)c3ccc(C#N)nc23)C[C@H]1C (single isomer, unassigned) [Example 144] | 46 nM | 28 nM | – | 65 nM | –
CC[C@H]1CN(C(c2ccc(F)cc2)c2ccc(C(F)(F)F)cn2)[C@H](CC)CN1c1nc(=O)n(C)c2ccc(C#N)nc12 (single isomer, unassigned) [Example 2] | 47 nM | 32 nM | 76 nM | 150 nM | –
CC[C@H]1CN(C(C)c2ccc(C3CC3)cc2)[C@H](CC)CN1c1nc(=O)n(C)c2ccc(C#N)nc12 (single isomer, unassigned) [Example 29] | 10 nM | 40 nM | 27 nM | 100 nM | –
CC[C@H]1CN(C(C)c2ccc(OC(F)(F)F)c(F)c2)[C@H](CC)CN1c1nc(=O)n(C)c2ccc(C#N)nc12 (single isomer, unassigned) [Example 30] | 4 nM | 76 nM | 23 nM | 59 nM | –
CC[C@@H]1CN(c2nc(=O)n(C)c3ccc(C#N)nc23)[C@@H](C)CN1C(c1ccc(F)cc1)c1nc(C2CC2)cs1 (single isomer, unassigned) [Example 51] | 27 nM | 37 nM | – | 9 nM | 6 nM
CC[C@H]1CN(C(C)c2ccc(OC(F)(F)F)cc2F)[C@H](CC)CN1c1nc(=O)n(C)c2ccc(C#N)nc12 (single isomer, unassigned) [Example 38] | 120 nM | 66 nM | 72 nM | 220 nM | –
C[C@@H]1CN(c2nc(=O)n(C)c3ccc(C#N)nc23)[C@@H](C)CN1C(c1ccc(F)cc1)c1nc(C(C)(C)C)no1 (single isomer, unassigned) [Example 108] | 50 nM | 400 nM | – | 28 nM | 57 nM
CC(c1ccc(F)c(F)c1)N1C[C@H](C)N(c2nc(=O)n(C)c3ccc(C#N)nc23)C[C@H]1C (single isomer, unassigned) [Example 149] | 1180 nM | 4560 nM | 8060 nM | 1950 nM | –
CC(c1ccc(OC(F)(F)F)c(F)c1)N1C[C@H](C)N(c2nc(=O)n(C)c3ccc(C#N)nc23)C[C@H]1C (single isomer, unassigned) [Example 160] | 250 nM | 110 nM | 240 nM | 860 nM | –
CC(c1ccc(OC(F)F)cc1)N1C[C@H](C)N(c2nc(=O)n(C)c3ccc(C#N)nc23)C[C@H]1C (single isomer, unassigned) [Example 157] | 1380 nM | 330 nM | – | 4360 nM | 1420 nM
CC[C@H]1CN(C(C)c2ccc(OCC3CC3)cc2)[C@H](CC)CN1c1nc(=O)n(C)c2ccc(C#N)nc12 (single isomer, unassigned) [Example 23] | 29 nM | 58 nM | 11 nM | 86 nM | –
CC[C@@H]1CN(c2nc(=O)n(C)c3ccc(C#N)nc23)[C@@H](C)CN1C(C)c1ccc(OC(F)(F)F)cc1F (single isomer, unassigned) [Example 81] | 130 nM | 300 nM | 57 nM | 99 nM | –
C[C@@H]1CN(c2nc(=O)n(C)c3ccc(C#N)nc23)[C@@H](C)CN1C(c1ccc(F)cc1)c1nc(C2CC2)no1 (single isomer, unassigned) [Example 107] | 40 nM | 130 nM | 49 nM | 120 nM | –
CC[C@H]1CN(C(C)c2ccc(C(F)(F)F)cc2)[C@H](C)CN1c1nc(=O)n(C)c2ccc(C#N)nc12 (stereo partly drawn) [Example 117, 4-((2S,5R)-2-ethyl-5-methyl-4-(1-(4-(trifluoromethyl)phenyl)ethyl)piperazin-1-yl)-1-methyl-2-oxo-1,2-dihydropyrido[3,2-d]pyrimidine-6-carbonitrile] | 2 nM | 2 nM | 160 nM | 780 nM | –
CC(c1ccc(F)cc1F)N1C[C@H](C)N(c2nc(=O)n(C)c3ccc(C#N)nc23)C[C@H]1C (single isomer, unassigned) [Example 145] | 1890 nM | 1130 nM | – | 750 nM | 20000 nM
CC(c1ccc(C2CC2)cc1F)N1C[C@H](C)N(c2nc(=O)n(C)c3ccc(C#N)nc23)C[C@H]1C (single isomer, unassigned) [Example 168] | 150 nM | 230 nM | 110 nM | 220 nM | –
CC[C@@H]1CN(c2nc(=O)n(C)c3ccc(C#N)nc23)[C@@H](C)CN1Cc1ccc(OC(F)(F)F)cc1 [Example 54, 4-((2S,5R)-5-ethyl-2-methyl-4-(4-(trifluoromethoxy)benzyl)piperazin-1-yl)-1-methyl-2-oxo-1,2-dihydropyrido[3,2-d]pyrimidine-6-carbonitrile] | 350 nM | 240 nM | – | 910 nM | 310 nM
CC[C@H]1CN(C(C)c2ccc(C3CC3)cc2F)[C@H](CC)CN1c1nc(=O)n(C)c2ccc(C#N)nc12 (single isomer, unassigned) [Example 40] | 41 nM | 320 nM | 21 nM | 10 nM | –
CC(c1ccc(Cl)cc1F)N1C[C@H](C)N(c2nc(=O)n(C)c3ccc(C#N)nc23)C[C@H]1C (single isomer, unassigned) [Example 147] | 1130 nM | 1460 nM | – | 1000 nM | –
